Data reported in the NIST ThermoML archive (doi:10.1021/je060271a).
Numbers after ± are expanded uncertainties.

Details: 343.15 K, Liquid, Vibrating tube method

CCCCCCC(=O)OCC(COC(=O)CCCCCC)(COC(=O)CCCCCC)COC(=O)CCCCCC [pentaerythritol tetraheptanoate]
Details | mass density [kg/m3]
28615 kPa | 960.4 ± 1.2
28635 kPa | 960.4 ± 1.2
28662 kPa | 960.4 ± 1.2
28700 kPa | 960.4 ± 1.2
28729 kPa | 960.5 ± 1.2
28739 kPa | 960.4 ± 1.2
28764 kPa | 960.6 ± 1.2
28779 kPa | 960.5 ± 1.2
28794 kPa | 960.6 ± 1.2
28823 kPa | 960.7 ± 1.2
28826 kPa | 960.6 ± 1.2
28858 kPa | 960.6 ± 1.2
28865 kPa | 960.6 ± 1.2
28887 kPa | 960.6 ± 1.2
28912 kPa | 960.6 ± 1.2
28918 kPa | 960.5 ± 1.2
28948 kPa | 960.6 ± 1.2
28952 kPa | 960.6 ± 1.2
28985 kPa | 960.7 ± 1.2
28992 kPa | 960.6 ± 1.2
29016 kPa | 960.7 ± 1.2
29032 kPa | 960.7 ± 1.2
29046 kPa | 960.8 ± 1.2
29076 kPa | 960.6 ± 1.2
29081 kPa | 960.7 ± 1.2
29112 kPa | 960.7 ± 1.2
29121 kPa | 960.5 ± 1.2
29142 kPa | 960.8 ± 1.2
29163 kPa | 960.7 ± 1.2
29178 kPa | 960.8 ± 1.2
29208 kPa | 960.9 ± 1.2
29212 kPa | 960.7 ± 1.2
29238 kPa | 960.8 ± 1.2
29254 kPa | 960.8 ± 1.2
29274 kPa | 960.9 ± 1.2
29305 kPa | 960.9 ± 1.2
29308 kPa | 960.7 ± 1.2
29336 kPa | 960.8 ± 1.2
29344 kPa | 960.9 ± 1.2
29372 kPa | 961 ± 1.2
29387 kPa | 960.8 ± 1.2
29434 kPa | 961 ± 1.2
29435 kPa | 960.9 ± 1.2
29461 kPa | 960.9 ± 1.2
29471 kPa | 961.1 ± 1.2
29503 kPa | 961 ± 1.2
29534 kPa | 961 ± 1.2
29540 kPa | 961 ± 1.2
29564 kPa | 961 ± 1.2
29571 kPa | 960.8 ± 1.2
29597 kPa | 961.1 ± 1.2
29602 kPa | 961.2 ± 1.2
29628 kPa | 960.8 ± 1.2
29634 kPa | 961.1 ± 1.2
29654 kPa | 961 ± 1.2
29666 kPa | 961 ± 1.2
29679 kPa | 961 ± 1.2
29704 kPa | 961.1 ± 1.2
29705 kPa | 961.1 ± 1.2
29735 kPa | 961.1 ± 1.2
29736 kPa | 961.1 ± 1.2
29764 kPa | 961.1 ± 1.2
29767 kPa | 961.1 ± 1.2
29790 kPa | 961.3 ± 1.2
29805 kPa | 961.3 ± 1.2
29816 kPa | 961.1 ± 1.2
29839 kPa | 961.1 ± 1.2
29846 kPa | 961.2 ± 1.2
29871 kPa | 961.3 ± 1.2
29873 kPa | 961.2 ± 1.2
29900 kPa | 961.1 ± 1.2
29903 kPa | 961.3 ± 1.2
29931 kPa | 961.1 ± 1.2
29935 kPa | 961.2 ± 1.2
29958 kPa | 961.1 ± 1.2
29974 kPa | 961.2 ± 1.2
29984 kPa | 961.3 ± 1.2
30006 kPa | 961.3 ± 1.2
30016 kPa | 961.3 ± 1.2
30043 kPa | 961.3 ± 1.2
30045 kPa | 961.4 ± 1.2
30070 kPa | 961.4 ± 1.2
30077 kPa | 961.3 ± 1.2
30102 kPa | 961.3 ± 1.2
30109 kPa | 961.4 ± 1.2
30129 kPa | 961.4 ± 1.2
30148 kPa | 961.4 ± 1.2
30157 kPa | 961.4 ± 1.2
30180 kPa | 961.4 ± 1.2
30184 kPa | 961.5 ± 1.2
30213 kPa | 961.5 ± 1.2
30216 kPa | 961.4 ± 1.2
30243 kPa | 961.5 ± 1.2
30247 kPa | 961.4 ± 1.2
30275 kPa | 961.4 ± 1.2
30288 kPa | 961.5 ± 1.2
30302 kPa | 961.4 ± 1.2
30321 kPa | 961.5 ± 1.2
30330 kPa | 961.5 ± 1.2
30354 kPa | 961.6 ± 1.2
30363 kPa | 961.5 ± 1.2
30388 kPa | 961.6 ± 1.2
30391 kPa | 961.6 ± 1.2
30419 kPa | 961.6 ± 1.2
30428 kPa | 961.5 ± 1.2
30446 kPa | 961.5 ± 1.2
30461 kPa | 961.6 ± 1.2
30481 kPa | 961.6 ± 1.2
30495 kPa | 961.6 ± 1.2
30510 kPa | 961.7 ± 1.2
30528 kPa | 961.6 ± 1.2
